The subject of test [1] is hUC-MSCs. Kind of test: FreSH-Tracer-based glutathione regeneration capacity (GRC) after diamide. Also noted: species or system human. Particulars: hUC-MSCs subcultured three times with AA2G 250 μg/mL, low concentration of diamide, vs naive cell group. As for the experimental part: In addition, GH is calculated as the coefficient of variation or robust coefficient of variation of cellular FR. GRC refers to a value obtained by real-time monitoring of FR after living cells are treated with an oxidizing agent, as calculated by dividing a value obtained by subtracting AUC of a group treated with 0.1-100 mM N-ethylmaleimide (NEM) from FR AUC of an oxidizing agent (diamide, H2O2, etc.)-treated group by a value obtained by subtracting the AUC of NEM-treated group from AUC of the untreated control, and multiplying the resulting value by 100. The FR of the NEM-treated group is a value for increasing the sensitivity of a GRC value by treating it as the blank value of the FR of the cells of interest. […] To remove the MitoFreSH-Tracer from the medium before measurement, the medium was exchanged with fresh 10 mM HEPES-containing HBSS, and a fluorescence image was obtained using a confocal imaging system, Operetta. By comparing GSH levels quantified from control cells not treated with RSL3 or control cells before treated with RSL3, the distribution of GSH expression-changed cells was calculated. Based on the point where the distribution histogram is divided into two peaks, the cells were divided into GSH^High cells (right peak) and GSH^Low cells (left peak), and then a ratio of corresponding cells was expressed as a percentage (%). […]

In test [2] the test system is hUC-MSCs. Kind of test: SDF1α- and PDGF-AA-induced migration capacity of hUC-MSCs. It counts as cell-based, human. Particulars: 125 or 250 μg/mL AA2G, three days. As for the experimental part:
The inventors observed an effect of the material on stem cells by treating each stem cells with a material for enhancing a glutathione evaluation parameter. When hUC-MSCs were subcultured in a L-AA2G-containing medium, CFU-F, migration capacity, and an anti-inflammatory effect were observed. A CFU-F assay (n=3) was performed by treating hUC-MSCs with 125 or 250 μg/mL of AA2G for three days. As shown in FIGS. 16A and 16B, it was confirmed that, when AA2G was treated, CFU-F increased. In addition, as hUC-MSCs were treated with 125 or 250 μg/mL of AA2G for three days, PDGF-AA-induced migration capacity (n=3) was analyzed. As shown in FIGS. 17A and 17B, it was confirmed that the migration capacity was increased by AA2G treatment. In addition, the reduction in T cell proliferation, a reduction in T cell differentiation, and the promotion of Treg cell differentiation were observed by treating hUC-MSCs with 125 or 250 μg/mL of AA2G for three days. […] Meanwhile, hUC-MSCs were cultured with a glutathione precursor such as γ-glutamyl cysteine (GGC, 0.1, 0.25, and 0.5 mM). A CFU-F assay (n=3) was performed by treating hUC-MSCs with each concentration of GGC for 2 hours. […] In addition, SDF1α and PDGF-AA-induced migration capacities (n=3) were analyzed for hUC-MSCs without treatment with GGC, and SDF1α- and PDGF-AA-induced migration abilities (n=3) were analyzed by treating hUC-MSCs with the increasing concentrations of GGC. STI571 was used as a PDGFR kinase inhibitor. As shown in FIGS. 20A to 20C, it was confirmed that, according to an increase in GGC treatment concentration, SDF1α- and PDGF-AA-induced migration capacities were enhanced.

In the case of `O=C1O[C@H]([C@@H](O)CO)C(O)=C1O[C@H]1O[C@H](CO)[C@@H](O)[C@H](O)[C@H]1O` [AA2G, ascorbic acid 2-glucoside], the “FreSH-Tracer-based GRC” value in the test with hUC-MSCs [1] is recorded as “increased”. Also, in the test on hUC-MSCs [2], the PDGF-AA-induced migration capacity result is reported as “increased”.

These data come from patent US11841369B2, “Method for improving quality of therapeutic cell through real-time glutathione measurement” (CELL2IN, INC., priority 2017, dated 2023).
